This passage reports IC50 results from patent publication EP2281824A1, “Furan-imidazolone derivatives, for the treatment of cognitive, neurodegenerative or neuronal diseases or disorders” (NOSCIRA, S.A., priority 2009, dated 2011).

Assay [1] concerns the target T1, BACE-1 β-Secretase recombinant human enzyme (Homo sapiens, UniProt P56817).
T1 construct: purchased R&D Systems
The assay is described as follows: BACE assay (time-resolved fluorescence, TruPoint BACE1 substrate). The class given is biochemical. Particulars: 200 nM peptide substrate, 8 nM enzyme, sodium acetate pH 4.5, 1 h at room temperature; read-out: IC50 Inhibition of BACE Activity. Here is the method:
This assay is based on time-resolved fluorescence ("TRF") technology, using a. BACE peptide substrate containing a fluorescent europium chelate coupled to one end and a quencher coupled to the other end. […] The reagents which are used in this assay are BACE-1 β-Secretase recombinant human enzyme (R&D Systems, Minneapolis, MN), TruPoint™ BACE1 substrate (Perkin Elmer Waltham, MA), sodium acetate, CHAPS and EDTA (Sigma Aldrich, St Louis, MO). The assay is carried out in a 96-well microplate in a final volume of 100 µl using 200 nM peptide substrate and 8 nM enzyme in 50 mM sodium acetate pH 4.5 with 1 mM EDTA and 0.2% (w/v) CHAPS. The plates are incubated for 1 h in the dark at room temperature and then read in a fluorimeter plate reader provided with time-resolved fluorescence capabilities (PolarStar Optima™, BMG-Labtech, Offenburg, Germany) using 337 nm as excitation wavelength and 615 nm as the emission wavelength. Compounds are tested in duplicate using a concentration range extending from 5 nM to 100 µM, using 10 µM H-4848 (commercial BACE inhibitor, BACHEM, Bubendorf, Switzerland) as control.
The compounds of formula (I) of the present invention where submitted to the above indicated assay, in order to determine their BACE activity inhibition. The results, indicated in IC50 format, are indicated below in Table I. IC50 is the half maximal inhibitory concentration, which is a measure of the effectiveness of a compound in inhibiting biological or biochemical function. This quantitative measure indicates the concentration of a particular substance is needed to inhibit a given biological process by half. In other words, it is the half maximal (50%) inhibitory concentration (IC) of a substance.

In another assay the test system is Aβ secretion. As to the kind of experiment: Inhibition of beta-amyloid secretion (Aβ1-40 ELISA of cell culture supernatants). The conditions noted are these: CHO-7W; CHO7w cell line stably transfected with human BACE, 48 hours, Aβ (1-40) in supernatants. The assay is classed as cell-based. The protocol:
To quantify human Aβ1-40 an ELISA-based commercial kit was used (Immunoassay Kit Human β Amyloid 1-40, The Genetics Company, Schlieren, Switzerland). Aβ (1-40) peptide was quantified from cell culture supernatants using a CHO7w cell line stably transfected with human BACE. β-Secretase inhibitor IV (Calbiochem, San Diego, CA), was used as Aβ secretion reduction positive control in all the Aβ secretion studies. Cells were grown in DMEM supplemented with 2% Foetal bovine serum, 1% penicillin-streptomycin, 1% L-glutamine and 200 µg/ml G418. Cells were seeded in 96-well culture microplates at 5000 cells/well and treated with 10 µM β secretase inhibitor IV or compounds for 48 hours. Then cell culture supernatants were collected and analyzed according to the kit manufacturer's instructions. At 10 µM β-secretase inhibitor IV the inhibition of Aβ secretion inhibition is usually between 70 and 100 %.
Some of the compounds of formula (I) of the present invention where submitted to the above indicated assay, in order to determine their capacity of inhibiting Aβ secretion. The results, indicated in IC50 format, are indicated below in Table I. Table I

T1 sequence (P56817 46-501): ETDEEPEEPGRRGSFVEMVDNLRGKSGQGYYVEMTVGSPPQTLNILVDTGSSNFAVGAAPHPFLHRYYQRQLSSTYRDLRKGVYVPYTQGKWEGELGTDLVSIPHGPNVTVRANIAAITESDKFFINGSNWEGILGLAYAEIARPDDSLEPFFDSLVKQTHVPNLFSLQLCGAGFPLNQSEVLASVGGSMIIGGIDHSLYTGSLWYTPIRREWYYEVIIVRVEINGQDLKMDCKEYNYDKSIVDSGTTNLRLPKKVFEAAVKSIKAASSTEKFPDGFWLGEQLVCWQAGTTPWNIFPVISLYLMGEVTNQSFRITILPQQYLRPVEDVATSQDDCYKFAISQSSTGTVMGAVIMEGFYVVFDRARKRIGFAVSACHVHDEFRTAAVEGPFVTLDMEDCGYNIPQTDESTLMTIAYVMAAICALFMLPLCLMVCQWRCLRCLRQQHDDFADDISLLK

In the case of `NC1=NC(=Cc2ccc(-c3ccc([N+](=O)[O-])cc3)o2)C(=O)N1` [Compound 1, 2-amino-5-[5-(4-nitro-phenyl)-furan-2-ylmethylene]-3,5 dihydro-imidazol-4-one], the IC50 in assay [1] is 0.11 µM.
On the same count and under the same terms, for `COc1ccc(-c2ccc(C=C3N=C(N)N(C)C3=O)o2)cc1Cl` [Compound 2, 2-amino-S-[S-(3-chloro-4-methoxy-phenyl)-furan-2-ylmethylene]-3-methyl-3,5-dihydro-imidazol-4-one] the value was 0.326 µM; for `COc1ccc(-c2ccc(C=C3N=C(N)NC3=O)o2)c(OC)c1` [Compound 3, 2-amino-5-[5-(2,4-dimethoxy-phenyl)-furan-2-ylmethylene]-3,5-dihydro-imidazol-4-one], 0.369 µM.
As to `NC1=NC(=Cc2ccc(-c3ccc4c(c3)OCO4)o2)C(=O)N1` [Compound 4, 2-amino-5-(5-benzo[1,3]dioxol-5-yl-furan-2-ylmethylene)-3,5-dihydro-imidazol-4-one], the IC50 in assay [1] amounted to 0.25 µM; in the assay on Aβ secretion it was 30 µM.
The corresponding values for `COc1ncccc1-c1ccc(C=C2N=C(N)NC2=O)o1` [Compound 5, 2-amino-5-[5-(2-methoxy-pyridin-3-yl)-furan-2-ylmethylene]-3,5-dihydro-imidazol-4-one] are 0.36 µM and 40 µM.
As to `COc1ncc(-c2ccc(C=C3N=C(N)NC3=O)o2)c(OC)n1` [Compound 6, 2-amino-5-[5-(2,4-dimethoxy-pyrimidin-5-yl)-furan-2-ylmethylene]-3,5-dihydro-imidazol-4-one], in assay [1], the IC50 was 1.32 µM.
In the case of `Cc1noc(C)c1-c1ccc(C=C2N=C(N)NC2=O)o1` [Compound 7, 2-Amino-5-[5-(3,5-dimethyl-isoxazol-4-yl)-furan-2-ylmethylene]-3,5-dihydro-imidazol-4-one], the IC50 in assay [1] was 0.39 µM.
On the same count and under the same terms, as for `NC1=NC(=Cc2ccc(-c3ncccn3)o2)C(=O)N1` [Compound 8, 2-amino-5-(5-pyrimidin-2-yl-furan-2-ylmethylene)-3,5-dihydro-imidazol-4-one], the figure is 1.3 µM.
As to `COC(=O)c1ccc(OC)c(-c2ccc(C=C3N=C(N)NC3=O)o2)c1` [Compound 9, 3-[5-(2-amino-5-oxo-1,5-dihydro-imidazol-4-ylidenemethyl)-furan-2-yl]-4-methoxy-benzoic acid methyl ester], the IC50 was found to be 0.711 µM in assay [1] and 45 µM in the assay on Aβ secretion.
In the case of `COc1ccc(-c2ccc(C=C3N=C(N)NC3=O)o2)cc1Cl` [Compound 10, 2-Amino-5-[5-(3-chloro-4-methoxy-phenyl)-furan-2-ylmethylene]-3,5-dihydro-imidazol-4-one], the IC50 in assay [1] turned out to be 0.319 µM.
Consider `COc1ccc(C#N)cc1-c1ccc(C=C2N=C(N)N(C)C2=O)o1` [Compound 11, 3-[5-(2-Amino-1-methyl-5-oxo-1,5-dihydro-imidazol-4-ylidenemethyl)-furan-2-yl]-4-methoxy-benzonitrile], for which the IC50 in assay [1] was 0.22 µM.
On the same count and under the same terms, for `COc1ccc(-c2ccc(C=C3N=C(N)N(Cc4ccccc4)C3=O)o2)cc1Cl` [Compound 12, 2-Amino-3-benzyl-5-[5-(3-chloro-4-methoxy-phenyl)-furan-2-ylmethylene]-3,5-dihydro-imidazol-4-one] the value was 1.23 µM; for `COCCN1C(=O)C(=Cc2ccc(-c3ccc(OC)c(Cl)c3)o2)N=C1N` [Compound 13, 2-Amino-5-[5-(3-chloro-4-methoxy-phenyl)-furan-2-ylmethylene]-3-(2-methoxy-ethyl)-3,5-dihydro-imidazol-4-one], 0.81 µM; for `COc1ncccc1-c1ccc(C=C2N=C(N)N(C)C2=O)o1` [Compound 14, 2-Amino-5-[5-(2-methoxy-pyridin-3-yl)-furan-2-ylmethylene]-3-methyl-3,5-dihydro-imidazol-4-one], 0.54 µM.
Same read-out and setting: as for `COc1ccc(-c2ccc(C=C3N=C(N)N(C)C3=O)o2)c(OC)c1` [Compound 15, 2-Amino-5-[5-(2,4-dimethoxy-phenyl)-furan-2-ylmethylene]-3-methyl-3,5-dihydro-imidazol-4-one], the figure is 0.346 µM; as for `Cc1noc(C)c1-c1ccc(C=C2N=C(N)N(C)C2=O)o1` [Compound 16, 2-amino-5-[5-(3,5-dimethyl-isoxazol-4-yl)-furan-2-ylmethylene]-3-methyl-3,5-dihydro-imidazol-4-one], 1.23 µM.
As to `COc1ccc(-c2ccc(C=C3N=C(N)NC3=O)o2)cc1` [Compound 17, 2-Amino-5-[5-(4-methoxy-phenyl)-furan-2-ylmethylene]-3,5-dihydro-imidazol-4-one], the values for the IC50 (in assay [1]; in the assay with Aβ secretion) were 0.422 µM and 35 µM, respectively.
In the case of `CN1C(=O)C(=Cc2ccc(-c3ccc([N+](=O)[O-])cc3)o2)N=C1N` [Compound 18, Acetate 1-methyl-4-[5-(4-nitro-phenyl)-furan-2-ylmethylene]-5-oxo-4,5-dihydro-1H-imidazol-2-yl-ammonium], the IC50 in assay [1] came to 0.4 µM.
